Experimental findings from ChEMBL document CHEMBL1201862, “PubChem BioAssay data set” (2004) are described below.

For test [1], the target named is T1, Mannose-6-phosphate isomerase (Homo sapiens, UniProt P34949).
T1 sequence (P34949 whole entry): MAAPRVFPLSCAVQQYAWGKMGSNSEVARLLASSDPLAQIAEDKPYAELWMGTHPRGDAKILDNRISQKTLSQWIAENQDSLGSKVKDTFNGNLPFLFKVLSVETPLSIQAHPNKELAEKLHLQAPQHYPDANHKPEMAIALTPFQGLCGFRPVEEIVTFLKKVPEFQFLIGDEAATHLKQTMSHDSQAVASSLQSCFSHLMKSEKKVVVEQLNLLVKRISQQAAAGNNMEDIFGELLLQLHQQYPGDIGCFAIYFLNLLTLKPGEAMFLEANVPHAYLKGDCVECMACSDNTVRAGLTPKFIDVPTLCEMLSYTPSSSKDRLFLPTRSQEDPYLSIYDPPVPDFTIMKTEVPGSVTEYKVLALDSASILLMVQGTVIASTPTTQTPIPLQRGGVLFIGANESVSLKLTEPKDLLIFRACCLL
The experiment in a line: MPI inhibition at elevated mannose 6-phosphate – biochemical, fluorescence intensity, high mannose 6-phosphate, primary screen (AID 1220).

Test [2] is described as follows: IC50 of Artemis nuclease activity blockers – biochemical, fluorescence intensity, dose response (AID 720701).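 Further: Artemis endonuclease enzyme.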 The format is functional.
The nature of test [3]: cells. The format is functional.
In test [4] the target is Delta-type opioid receptor (Homo sapiens, UniProt P41143). The experiment in a line: HTS Image-Based Screen for Agonists of the DOR Receptor. [Related pubchem assays (depositor defined):AID1777, AID1786, AID2133]. The format is functional.
Chain of Delta-type opioid receptor (P41143 whole entry): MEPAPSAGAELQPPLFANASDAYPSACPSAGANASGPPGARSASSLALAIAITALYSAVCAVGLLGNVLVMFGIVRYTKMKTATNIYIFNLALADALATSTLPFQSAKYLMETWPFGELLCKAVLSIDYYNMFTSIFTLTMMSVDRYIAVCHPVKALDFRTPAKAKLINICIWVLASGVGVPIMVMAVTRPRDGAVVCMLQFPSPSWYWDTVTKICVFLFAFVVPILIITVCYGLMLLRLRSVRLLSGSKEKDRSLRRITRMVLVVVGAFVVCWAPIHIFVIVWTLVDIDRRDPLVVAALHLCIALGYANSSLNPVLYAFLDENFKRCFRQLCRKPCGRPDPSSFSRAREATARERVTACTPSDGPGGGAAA
In another test the test system is BJ. The experiment in a line: BJ-TERT fibroblast viability loss – cell-based, RAS-independent, luminescence, dose response (AID 1933). The format is functional. The note with it: Homo sapiens.
A short description of test [5]: NIH3T3 cell viability loss – ATP luminescence, mouse fibroblasts, counter-screen, dose response (AID 2010).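 Further: cells exposed to compound for about 90 hours before reading.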 The format is functional, cell-based.
Test [6] can be described thus: DRD fibroblast viability loss – cell-based, non-viral oncogenic, luminescence, dose response (AID 1934). The format is functional. The note with it: Homo sapiens.
Test [7] addresses Sphingosine 1-phosphate receptor 1 (Homo sapiens, UniProt P21453). The format is functional.
For test [8], the target named is Tyrosine-protein kinase JAK2 (Homo sapiens, UniProt O60674). The format is functional.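 Further: JAK2 tested as one member of a kinase panel.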
Test [9] deals with Phosphorylase b kinase gamma catalytic chain, liver/testis isoform (Homo sapiens, UniProt P15735). The format is functional.
For test [10], the target named is PAS domain-containing serine/threonine-protein kinase (Homo sapiens, UniProt Q96RG2). The format is functional.
The target in test [11] is Serine/threonine-protein kinase D3 (Homo sapiens, UniProt O94806). The format is functional.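 Further: determined within a kinase panel screen, with PRKCN as the panel member.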
Test [12] deals with Mitogen-activated protein kinase 8 (Homo sapiens, UniProt P45983). The format is functional.
In another test the target is Aurora kinase A (Homo sapiens, UniProt O14965). The format is functional.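 Further: value from the Navigating the Kinome kinase panel profiling, panel entry STK6.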
In test [13] the target is MAP kinase-activated protein kinase 2 (Homo sapiens, UniProt P49137). The format is functional.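 Further: measured as one member of a kinome-wide kinase panel.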
In test [14] the target is Tyrosine-protein kinase BTK (Homo sapiens, UniProt Q06187). The format is functional.
Chain of Tyrosine-protein kinase BTK (Q06187 whole entry): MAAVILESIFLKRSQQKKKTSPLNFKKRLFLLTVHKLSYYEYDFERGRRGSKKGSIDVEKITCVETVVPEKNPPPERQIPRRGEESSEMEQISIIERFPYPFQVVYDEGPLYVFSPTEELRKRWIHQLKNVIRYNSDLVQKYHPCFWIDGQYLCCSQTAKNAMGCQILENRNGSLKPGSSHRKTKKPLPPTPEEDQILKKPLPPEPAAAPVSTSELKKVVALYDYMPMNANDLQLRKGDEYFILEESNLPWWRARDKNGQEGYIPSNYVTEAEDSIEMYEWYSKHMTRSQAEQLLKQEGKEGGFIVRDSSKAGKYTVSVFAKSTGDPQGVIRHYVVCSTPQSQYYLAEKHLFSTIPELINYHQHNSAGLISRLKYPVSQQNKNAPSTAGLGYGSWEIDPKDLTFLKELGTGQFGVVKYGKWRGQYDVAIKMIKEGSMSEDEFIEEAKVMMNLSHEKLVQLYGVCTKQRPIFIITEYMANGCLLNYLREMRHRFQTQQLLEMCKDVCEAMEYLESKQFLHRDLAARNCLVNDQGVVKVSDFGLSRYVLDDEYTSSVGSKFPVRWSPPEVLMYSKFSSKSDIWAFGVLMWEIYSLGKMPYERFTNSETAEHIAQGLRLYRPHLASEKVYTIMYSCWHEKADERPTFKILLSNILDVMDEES
Test [15] addresses Serine/threonine-protein kinase PAK 1 (Homo sapiens, UniProt Q13153). The format is functional.
Test [16] addresses Calcium/calmodulin-dependent protein kinase type II subunit delta (Homo sapiens, UniProt Q13557). The format is functional.
For test [17], the target named is Casein kinase I isoform alpha (Homo sapiens, UniProt P48729). The format is functional.
Chain of Casein kinase I isoform alpha (P48729 whole entry, canonical isoform): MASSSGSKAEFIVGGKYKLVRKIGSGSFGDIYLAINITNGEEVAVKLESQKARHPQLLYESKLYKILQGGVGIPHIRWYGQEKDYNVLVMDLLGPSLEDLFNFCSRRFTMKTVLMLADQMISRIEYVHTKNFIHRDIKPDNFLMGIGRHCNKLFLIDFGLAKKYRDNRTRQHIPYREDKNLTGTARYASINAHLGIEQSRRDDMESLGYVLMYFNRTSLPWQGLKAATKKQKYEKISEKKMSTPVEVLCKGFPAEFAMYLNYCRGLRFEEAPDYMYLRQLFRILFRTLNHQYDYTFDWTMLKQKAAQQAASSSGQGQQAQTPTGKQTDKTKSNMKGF
The target of test [18] is Ribosomal protein S6 kinase alpha-5 (Homo sapiens, UniProt O75582). The format is functional.
Test [19] addresses Serine/threonine-protein kinase TAO1 (Homo sapiens, UniProt Q7L7X3). The format is functional.
Test [20] has as its target MAP/microtubule affinity-regulating kinase 3 (Homo sapiens, UniProt P27448). The format is functional.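 Further: MARK3 affinity measured as one member of a kinome panel.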
Test [21] addresses Proto-oncogene tyrosine-protein kinase Src (Homo sapiens, UniProt P12931). The format is functional.
Test [22] has as its target Serine/threonine-protein kinase Nek4 (Homo sapiens, UniProt P51957). The format is functional.
The target of test [23] is cAMP-dependent protein kinase catalytic subunit PRKX (Homo sapiens, UniProt P51817). The format is functional.
Test [24] addresses Interleukin-1 receptor-associated kinase 1 (Homo sapiens, UniProt P51617). The format is functional.
For test [25], the target named is Maternal embryonic leucine zipper kinase (Homo sapiens, UniProt Q14680). The format is functional.
The next test concerns the target Aurora kinase B (Homo sapiens, UniProt Q96GD4). The format is functional.
Test [26] has as its target Tyrosine-protein kinase Fer (Homo sapiens, UniProt P16591). The format is functional.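 Further: FER tested as one member of a kinome panel.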
Test [27] deals with Serine/threonine-protein kinase DCLK1 (Homo sapiens, UniProt O15075). The format is functional.
The target in test [28] is cAMP-dependent protein kinase catalytic subunit alpha (Homo sapiens, UniProt P17612). The format is functional.
Test [29] concerns the target Mitogen-activated protein kinase 12 (Homo sapiens, UniProt P53778). The format is functional.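 Further: measured as one member of a kinome-wide kinase profiling panel.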
Test [30] has as its target Mitogen-activated protein kinase kinase kinase kinase 4 (Homo sapiens, UniProt O95819). The format is functional.
In test [31] the target is Serine/threonine-protein kinase 3 (Homo sapiens, UniProt Q13188). The format is functional.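 Further: measured as one member of a kinome-wide kinase panel.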
Test [32] in a line: A549 cell cytotoxicity, dose response, cytotoxicity control, plate reader, cherry-pick, antagonist series (AID 743412). The format is functional, cell-based.
Test [33] is described as follows: cells.
A short description of test [34]: Luminescence Cell-Based Dose Confirmation HTS to Identify Activators of 5'UTR Stem-Loop Driven Alpha-Synuclein mRNA Translation in H4 Neuroglioblastoma Cells. [Related pubchem assays: 1829 (Project Summary), 1814 (Primary HTS)]. The format is functional.
Test [35] addresses Peroxisome proliferator-activated receptor gamma/Nuclear receptor coactivator 3 (Homo sapiens, UniProt P37231). The format is functional.
The next test deals with Estrogen receptor beta (Homo sapiens, UniProt Q92731). Put plainly: blockers of SRC-3 recruitment to ERβ – biochemical, ELISA, streptavidin-HRP readout, orthogonal assay, confirmation (AID 1060).
Chain of Estrogen receptor beta (Q92731 whole entry): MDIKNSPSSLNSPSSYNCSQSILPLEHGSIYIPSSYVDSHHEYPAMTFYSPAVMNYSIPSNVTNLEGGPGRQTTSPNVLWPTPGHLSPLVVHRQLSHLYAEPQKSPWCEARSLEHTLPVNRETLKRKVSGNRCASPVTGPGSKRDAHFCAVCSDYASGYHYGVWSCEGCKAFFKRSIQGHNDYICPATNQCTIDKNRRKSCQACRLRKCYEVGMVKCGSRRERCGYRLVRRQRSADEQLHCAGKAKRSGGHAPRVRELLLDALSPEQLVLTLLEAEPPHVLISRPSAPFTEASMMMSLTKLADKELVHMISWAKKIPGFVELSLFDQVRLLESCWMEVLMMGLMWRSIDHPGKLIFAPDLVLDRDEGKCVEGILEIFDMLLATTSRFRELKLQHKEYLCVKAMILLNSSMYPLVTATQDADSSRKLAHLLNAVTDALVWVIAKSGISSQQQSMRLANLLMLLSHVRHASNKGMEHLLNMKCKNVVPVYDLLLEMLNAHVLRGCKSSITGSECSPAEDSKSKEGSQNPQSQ
The target of the next test is Beta-arrestin-1 (Homo sapiens, UniProt P49407). The experiment in a line: beta-arrestin/AP2 interaction blockers, potency – biochemical, cherry pick 1, beta2-adaptin appendage, flow cytometry, dose response (AID 588783). The format is functional.

Activity calls are given as the source filed them.

Chain of Mitogen-activated protein kinase kinase kinase kinase 4 (O95819 whole entry): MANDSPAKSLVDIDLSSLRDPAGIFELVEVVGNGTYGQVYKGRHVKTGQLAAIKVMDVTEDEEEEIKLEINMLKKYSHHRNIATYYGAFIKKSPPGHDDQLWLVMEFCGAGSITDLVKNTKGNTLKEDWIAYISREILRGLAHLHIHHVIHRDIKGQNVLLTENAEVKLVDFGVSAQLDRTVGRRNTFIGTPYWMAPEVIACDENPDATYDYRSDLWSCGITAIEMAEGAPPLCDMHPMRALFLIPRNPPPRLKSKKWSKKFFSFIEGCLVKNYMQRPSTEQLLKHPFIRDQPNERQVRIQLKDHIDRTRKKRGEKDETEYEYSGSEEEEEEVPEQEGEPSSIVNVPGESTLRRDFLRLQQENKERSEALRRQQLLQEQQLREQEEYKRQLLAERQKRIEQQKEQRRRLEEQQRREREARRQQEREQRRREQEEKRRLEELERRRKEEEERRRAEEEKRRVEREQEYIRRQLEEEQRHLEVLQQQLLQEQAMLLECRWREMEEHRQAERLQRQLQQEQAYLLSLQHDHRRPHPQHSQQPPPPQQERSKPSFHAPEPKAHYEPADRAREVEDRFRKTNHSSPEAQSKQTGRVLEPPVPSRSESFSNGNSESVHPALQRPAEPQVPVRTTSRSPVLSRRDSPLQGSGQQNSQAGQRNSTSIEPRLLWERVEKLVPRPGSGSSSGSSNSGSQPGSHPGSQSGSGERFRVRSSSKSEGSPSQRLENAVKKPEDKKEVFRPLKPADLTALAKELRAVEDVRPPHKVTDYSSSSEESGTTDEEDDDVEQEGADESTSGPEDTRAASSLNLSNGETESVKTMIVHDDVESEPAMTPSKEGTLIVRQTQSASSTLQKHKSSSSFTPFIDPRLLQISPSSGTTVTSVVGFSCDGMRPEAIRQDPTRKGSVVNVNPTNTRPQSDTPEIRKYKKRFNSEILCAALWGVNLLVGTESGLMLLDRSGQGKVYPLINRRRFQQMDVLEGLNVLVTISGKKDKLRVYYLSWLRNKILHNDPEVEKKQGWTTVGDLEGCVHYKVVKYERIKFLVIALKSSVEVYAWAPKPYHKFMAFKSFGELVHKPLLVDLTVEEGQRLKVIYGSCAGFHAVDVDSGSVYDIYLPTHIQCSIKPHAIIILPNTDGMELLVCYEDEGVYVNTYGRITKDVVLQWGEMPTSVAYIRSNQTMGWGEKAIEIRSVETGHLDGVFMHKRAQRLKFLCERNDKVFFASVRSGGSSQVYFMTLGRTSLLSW
Chain of Peroxisome proliferator-activated receptor gamma/Nuclear receptor coactivator 3 (P37231 whole entry): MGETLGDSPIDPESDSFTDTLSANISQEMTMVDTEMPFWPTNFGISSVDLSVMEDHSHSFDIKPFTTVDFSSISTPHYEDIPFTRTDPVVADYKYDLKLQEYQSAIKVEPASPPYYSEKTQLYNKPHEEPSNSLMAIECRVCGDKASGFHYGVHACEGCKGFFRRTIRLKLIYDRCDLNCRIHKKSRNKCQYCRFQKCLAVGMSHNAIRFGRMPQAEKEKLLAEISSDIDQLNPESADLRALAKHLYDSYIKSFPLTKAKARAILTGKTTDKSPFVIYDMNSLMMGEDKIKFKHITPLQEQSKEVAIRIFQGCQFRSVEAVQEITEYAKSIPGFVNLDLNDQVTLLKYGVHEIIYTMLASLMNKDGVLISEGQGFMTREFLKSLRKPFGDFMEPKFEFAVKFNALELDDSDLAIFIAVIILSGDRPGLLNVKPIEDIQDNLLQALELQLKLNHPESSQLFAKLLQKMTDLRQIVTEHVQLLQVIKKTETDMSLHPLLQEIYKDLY
Chain of Peroxisome proliferator-activated receptor gamma/Nuclear receptor coactivator 3 (Q9Y6Q9 whole entry, further chain): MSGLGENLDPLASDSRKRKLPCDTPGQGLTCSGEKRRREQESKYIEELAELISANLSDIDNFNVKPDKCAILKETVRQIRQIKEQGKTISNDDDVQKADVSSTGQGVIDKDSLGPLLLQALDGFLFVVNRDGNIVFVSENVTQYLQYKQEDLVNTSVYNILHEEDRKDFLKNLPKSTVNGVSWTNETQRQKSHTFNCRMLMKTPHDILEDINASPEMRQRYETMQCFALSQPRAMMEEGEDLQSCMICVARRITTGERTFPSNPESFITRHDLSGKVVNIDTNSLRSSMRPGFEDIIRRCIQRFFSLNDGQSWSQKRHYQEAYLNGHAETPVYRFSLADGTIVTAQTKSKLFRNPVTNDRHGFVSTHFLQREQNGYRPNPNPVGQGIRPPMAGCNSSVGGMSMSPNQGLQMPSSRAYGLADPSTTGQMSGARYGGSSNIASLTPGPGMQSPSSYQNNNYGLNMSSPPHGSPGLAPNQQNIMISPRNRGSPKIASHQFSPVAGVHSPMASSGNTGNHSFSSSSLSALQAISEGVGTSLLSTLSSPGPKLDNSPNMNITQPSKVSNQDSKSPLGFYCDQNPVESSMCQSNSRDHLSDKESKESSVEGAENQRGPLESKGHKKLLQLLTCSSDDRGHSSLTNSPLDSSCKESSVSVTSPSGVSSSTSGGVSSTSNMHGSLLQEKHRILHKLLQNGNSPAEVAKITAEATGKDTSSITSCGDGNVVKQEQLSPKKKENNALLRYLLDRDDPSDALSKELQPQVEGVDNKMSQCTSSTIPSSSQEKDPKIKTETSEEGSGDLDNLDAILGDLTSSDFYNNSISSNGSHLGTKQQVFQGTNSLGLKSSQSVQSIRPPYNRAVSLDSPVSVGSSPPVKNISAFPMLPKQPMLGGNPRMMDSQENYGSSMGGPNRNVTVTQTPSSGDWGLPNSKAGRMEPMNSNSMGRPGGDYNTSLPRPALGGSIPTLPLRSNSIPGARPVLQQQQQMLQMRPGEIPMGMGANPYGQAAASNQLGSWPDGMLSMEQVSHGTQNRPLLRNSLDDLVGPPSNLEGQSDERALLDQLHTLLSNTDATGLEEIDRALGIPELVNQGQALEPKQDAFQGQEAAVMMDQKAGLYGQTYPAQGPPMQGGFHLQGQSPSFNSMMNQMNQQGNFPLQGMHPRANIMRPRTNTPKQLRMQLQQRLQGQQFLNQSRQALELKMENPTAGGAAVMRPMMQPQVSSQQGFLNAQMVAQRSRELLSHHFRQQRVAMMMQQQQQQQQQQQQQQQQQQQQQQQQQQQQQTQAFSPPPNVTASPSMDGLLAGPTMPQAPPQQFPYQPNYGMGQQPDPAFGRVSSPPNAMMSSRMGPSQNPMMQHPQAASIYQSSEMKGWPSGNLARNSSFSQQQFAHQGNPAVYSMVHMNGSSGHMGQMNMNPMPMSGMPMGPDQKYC

`Cc1ccc(C(=O)c2c(C)oc3c2C(=O)C(=O)c2ccccc2-3)cc1`: the IC50 is > 50 µM (not active) in [1] and 2.2 µM (active) in test [2].

`Nc1ccc(Br)c2cccnc12`: in the test “cells [3]”, the IC50 is > 50 µM (active).

As to `Cc1ccc(Nc2cc(C)nn2-c2nc(C)cc(O)n2)cc1`, the EC50 in [4] is > 32 µM (inactive); in the test on BJ, 0.549 µM (active); in test [5], 0.497 µM (active); in [6], 22.4 µM (active). Also, the IC50 in test [7] is 0.764 µM (active).

Regarding `O=C1NC(=S)SC1=C1C(=O)Nc2ccc(Br)cc21`, the Ki is > 1.58 µM (inactive) in [8]; > 5.01 µM (inactive) in test [9]; > 1.58 µM (inactive) in test [10]; > 10 µM (inactive) in [11]; 1 µM (active) in [12]; 0.501 µM (active) on Aurora kinase A. Further, the Ki is > 7.94 µM (inactive) in [13]; > 1.26 µM (inactive) in test [14]; > 10 µM (inactive) in test [15]; 1.26 µM (active) in [16]; > 6.31 µM (inactive) in test [17]; > 2 µM (inactive) in [18]. Further, the Ki was 5.01 µM (active) in test [19]; 2.51 µM (active) in test [20]; > 2 µM (inactive) in [21]; > 6.31 µM (inactive) in test [22]; > 1.58 µM (inactive) in [23]; > 7.94 µM (inactive) in [24]. In addition, the Ki in test [25] was 0.631 µM (active); at Aurora kinase B, 2.51 µM (active); in test [26] it was > 1.58 µM (inactive); in test [27], > 10 µM (inactive); in test [28], > 7.94 µM (inactive); in test [29] it was > 6.31 µM (inactive). For the same compound, the Ki in test [30] is 0.631 µM (active); in test [31], 2 µM (active).

Take `Cc1cnc(NC(=O)c2sc3ccccc3c2Cl)s1`: the AC50 in [32] is 25.4 µM (active). In the test “cells [33]”, the EC50 is > 67.5 µM (inactive).

In the case of `CN(C)c1ncc(C2=C(Cl)C(=O)C(N3CCCC3)=C(Cl)C2=O)s1`, the EC50 is > 120 µM (not active) in test [34] and > 79.4 µM (not active) in test [35]. Moreover, the results for the IC50 against Estrogen receptor beta and at Beta-arrestin-1 were 20.6 µM (not active) and 10.7 µM (active), respectively.
